# Target: T1, ENT2 (Homo sapiens, UniProt Q14542)
# T1 sequence (Q14542 1-456): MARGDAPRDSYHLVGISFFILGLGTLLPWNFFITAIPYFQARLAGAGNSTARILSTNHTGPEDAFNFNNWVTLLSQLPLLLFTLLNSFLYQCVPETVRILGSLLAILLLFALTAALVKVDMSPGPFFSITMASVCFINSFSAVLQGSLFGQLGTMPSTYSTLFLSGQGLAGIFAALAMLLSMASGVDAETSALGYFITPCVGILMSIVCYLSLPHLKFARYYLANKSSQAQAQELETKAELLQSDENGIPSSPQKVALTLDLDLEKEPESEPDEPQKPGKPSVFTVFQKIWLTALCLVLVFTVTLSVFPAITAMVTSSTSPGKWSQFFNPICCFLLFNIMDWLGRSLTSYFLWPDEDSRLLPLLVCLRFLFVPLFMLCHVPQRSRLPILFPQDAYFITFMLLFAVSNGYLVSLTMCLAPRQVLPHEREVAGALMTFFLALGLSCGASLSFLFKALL
# Assay: not given
# Conditions: ENT2 inhibited only by high concentration of NBMPR; cited from earlier work
row,Structure (SMILES),IC50 [nM]
1,"O=[N+]([O-])c1ccc(CSc2ncnc3c2ncn3C2OC(CO)C(O)C2O)cc1 (stereo not shown) [NBMPR, nitrobenzylthioinosine]",> 1000

# Target: T2, human CNT2 (Homo sapiens, UniProt O43868)
# T2 construct: expressed in transfected cells; host or cells: COS-7 cells (RIKEN CELL BANK RCB0539), transient lipofection of a pCI-neo plasmid
# T2 sequence (O43868 1-658 P22L/S45C/I160M): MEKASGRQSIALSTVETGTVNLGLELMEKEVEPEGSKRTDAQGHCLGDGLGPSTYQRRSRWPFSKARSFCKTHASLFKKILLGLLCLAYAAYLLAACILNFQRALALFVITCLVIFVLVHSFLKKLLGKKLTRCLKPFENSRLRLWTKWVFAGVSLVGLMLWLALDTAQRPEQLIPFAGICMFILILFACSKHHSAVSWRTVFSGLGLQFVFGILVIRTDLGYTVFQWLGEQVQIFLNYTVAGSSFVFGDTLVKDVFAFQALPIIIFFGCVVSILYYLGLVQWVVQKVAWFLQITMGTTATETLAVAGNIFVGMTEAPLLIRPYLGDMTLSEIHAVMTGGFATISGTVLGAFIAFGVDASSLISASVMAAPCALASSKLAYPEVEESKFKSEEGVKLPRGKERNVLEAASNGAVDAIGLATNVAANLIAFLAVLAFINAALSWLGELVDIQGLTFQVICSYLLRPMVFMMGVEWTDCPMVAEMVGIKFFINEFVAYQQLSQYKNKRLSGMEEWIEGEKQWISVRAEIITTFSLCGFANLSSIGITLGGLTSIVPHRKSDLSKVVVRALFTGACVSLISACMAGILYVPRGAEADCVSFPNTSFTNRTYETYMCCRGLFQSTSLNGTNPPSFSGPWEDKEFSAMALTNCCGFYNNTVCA
# Assay: Inhibitory activity against uptake of adenosine through human CNT2
# Format: cell-based
# Conditions: 14C-labeled adenosine 10 μM, COS-7 cells transiently expressing human CNT2, 30 minutes at 37° C.
# Experimental: Expression plasmid of human CNT2 was transfected into COS-7 cells (RIKEN CELL BANK RCB0539) by lipofection method. LIPOFECTAMINE 2000 (Invitrogen) was used as a lipofection reagent. COS-7 cells were diluted in D-MEM (Invitrogen) containing 10% fetal calf serum (Sanko Junyaku) at 5×10^5/1 mL, and seeded into collagen-coated 96-well plates (IWAKI) at 100 μL/well and cultured at 37° C. for 2 hours with 5% CO2 condition. For each well, 0.6 μL of LIPOFECTAMINE 2000 (Invitrogen) was diluted in 25 μL of OPTI-MEM (Invitrogen), and incubated for 7 minutes at room temperature (hereinafter referred to as Lipo 2000-OPTI). […]
# An Uptake buffer was prepared by addition of a mixture of non-radioisotope labeled (Sigma) and ^14C-labeled (Amersham Biosciences) adenosine at the final concentration of 10 μM into a buffer, pH 7.4, containing 140 mM sodium chloride, 2 mM potassium chloride, 1 mM calcium chloride, 1 mM magnesium chloride, 10 mM HEPES 2-[4-(2-hydroxyethyl)-1-piperazinyl]ethane sulfonic acid, 5 mM tris(hydroxy-methyl)aminomethane and 5 mM glucose. […] After mixing with 150 μL of MicroScint-40 (Perkin Elmer), radioactivity was measured by means of scintillation counter (Perkin Elmer). One hundred % was set to the difference between the uptake in the control group and the basal uptake, and the uptake of adenosine at each test compound concentration was calculated. […]
row,Structure (SMILES),IC50 [nM]
1,Nc1ncnc2c1nc(NCc1ccc(-c3ccccc3)c(OCCCCO)c1)n2[C@@H]1O[C@H](CO)[C@@H](O)[C@H]1O [Example 82],297

# System: CNT
# Assay: not given
# Conditions: Non-patent Reference 14; cited from earlier work
row,Structure (SMILES),inhibitory activity against CNT
1,Nc1ncnc2c1nc(Br)n2[C@@H]1O[C@H](CO)[C@@H](O)[C@H]1O [8-bromoadenosine],weak inhibitory activity

# Target: T3, human CNT2 (Homo sapiens, UniProt O43868, I160M/P22L/S45C)
# T3 construct: expressed in transfected cells; host or cells: COS-7 cells (RIKEN CELL BANK RCB0539), transient lipofection of a pCI-neo plasmid
# T3 sequence (O43868 1-658 P22L/S45C/I160M): T2 sequence (O43868 1-658 P22L/S45C/I160M)
# Assay: Inhibitory activity against uptake of inosine through human CNT2
# Format: cell-based
# Conditions: 14C-labeled inosine 10 μM, COS-7 cells transiently expressing human CNT2, 30 minutes at 37° C.
# Experimental: Expression plasmid of human CNT2 was transfected into COS-7 cells (RIKEN CELL BANK RCB0539) by lipofection method. LIPOFECTAMINE 2000 (Invitrogen) was used as a lipofection reagent. COS-7 cells were diluted in D-MEM (Invitrogen) containing 10% fetal calf serum (Sanko Junyaku) at 5×10^5/1 mL, and seeded into collagen-coated 96-well plates (IWAKI) at 100 μL/well and cultured at 37° C. for 2 hours with 5% CO2 condition. For each well, 0.6 μL of LIPOFECTAMINE 2000 (Invitrogen) was diluted in 25 μL of OPTI-MEM (Invitrogen), and incubated for 7 minutes at room temperature (hereinafter referred to as Lipo 2000-OPTI). For each well, 0.3 μg of plasmid was diluted in 25 μL of OPTI-MEM (Invitrogen), and the solution was added to the Lipo 2000-OPTI and mixed gently and incubated for 30 minutes at room temperature, and was transferred 50 μL for each well to culture medium. The cells were incubated at 37° C. with 5% CO2 condition for 2 days, and used for the uptake assays.
# An Uptake buffer was prepared by addition of a mixture of non-radioisotope labeled (WAKO) and ^14C-labeled (Muromachi Yakuhin) inosine at the final concentration of 10 μM into a buffer, pH7.4, containing 140 mM sodium chloride, 2 mM potassium chloride, 1 mM calcium chloride, 1 mM magnesium chloride, 10 mM HEPES 2-[4-(2-hydroxyethyl)-1-piperazinyl]ethane sulfonic acid, 5 mM tris(hydroxymethyl)aminomethane and 5 mM glucose. For measurement of basal uptake, Basal uptake measurement buffer, which contained 140 mM choline chloride instead of sodium chloride was prepared. In uptake assays, NBMPR was added to Uptake buffer and Basal uptake measurement buffer at the final concentration of […]. In the case of measurement of inhibitory activity of test compounds, test compounds were dissolved in dimethyl sulfoxide, and then appropriately diluted with Uptake buffer as to prepare Measurement buffers. After removing culture medium of human CNT2 transiently expressing cells, Pretreatment buffer (Basal uptake measurement buffer without inosine and glucose) was added to wells at 200 μL/well and incubated at 37° C. for 10 minutes. After repeating the same step again, Pretreatment buffer was removed and Measurement buffers and Basal uptake measurement buffer were added at 75 μL/well and incubated at 37° C. After incubation for 30 minutes, Measurement buffers and Basal uptake measurement buffer were removed, and the cells were washed with Washing buffer (Basal uptake measurement buffer with non-radioisotope labeled inosine at 10 μM) at 200 μL/well twice. The cells were solubilized with 0.2 mol/L sodium hydroxide at 75 μL/well, and the cell lysates were transferred into PicoPlates (Perkin Elmer). After mixing with 150 μL of MicroScint-40 (Perkin Elmer), radioactivity was measured by means of scintillation counter (Perkin Elmer). One hundred % was set to the difference between the uptake in the control group and the basal uptake, and the uptake of inosine at each test compound concentration was calculated. The test compound concentration inhibiting 50% uptake of inosine (IC50 value) was calculated using logit plot.
row,IC50 [nM],Structure (SMILES)
1,85,NC(=O)[C@H](Cc1ccc(O)cc1)NCCCOc1cccc(-c2ccc(CNc3nc4c(N)ncnc4n3[C@@H]3O[C@H](CO)[C@@H](O)[C@H]3O)cc2)c1 [Example 164]
2,266,NCCCOc1cc(CNc2nc3c(N)ncnc3n2[C@H]2C[C@H](O)[C@@H](CO)O2)ccc1-c1ccccc1 [Example 155]
3,1610,NCCCOc1cc(CNc2nc3c(N)ncnc3n2[C@@H]2O[C@H](CO)[C@@H](O)[C@@H]2O)ccc1-c1ccccc1 [Example 153]
4,234,"N=C(N)NCCCOc1cccc(-c2ccc(CNc3nc4c(N)ncnc4n3[C@@H]3O[C@H](CO)[C@@H](O)[C@H]3O)cc2)c1 [Example 157, 8-[3′-(3-Guanidinopropoxy)biphenyl-4-ylmethylamino]-adenosine]"
5,321,CCCNCCCOc1cc(CNc2nc3c(N)ncnc3n2[C@@H]2O[C@H](CO)[C@@H](O)[C@H]2O)ccc1-c1ccccc1 [Example 147]
6,7150,NCCCOc1cccc(-c2ccc(CNc3nc4c(N)ncnc4n3[C@@H]3O[C@H](CO)[C@@H](O)[C@@H]3O)cc2)c1 [Example 154]
7,412,C[N+](C)(C)CCCOc1cccc(-c2ccc(CNc3nc4c(N)ncnc4n3[C@@H]3O[C@H](CO)[C@@H](O)[C@H]3O)cc2)c1 [Example 167]
8,2430,CN(C)CCCOc1cccc(-c2ccc(CCNc3nc4c(N)ncnc4n3[C@@H]3O[C@H](CO)[C@@H](O)[C@H]3O)cc2)c1 [Example 171]
9,176,NCCCOc1ccc(-c2cccc(CNc3nc4c(N)ncnc4n3[C@@H]3O[C@H](CO)[C@@H](O)[C@H]3O)c2)cc1 [Example 149]

# Second part, the compound before the results:
row,Structure (SMILES),IC50 [nM]
1,CCN(CCO)CCCOc1cc(CNc2nc3c(N)ncnc3n2[C@@H]2O[C@H](CO)[C@@H](O)[C@H]2O)ccc1-c1ccccc1 [Example 130],223
2,Nc1ncnc2c1nc(NCc1ccc(-c3cccc(OCCCN4CCCCC4)c3)cc1)n2[C@@H]1O[C@H](CO)[C@@H](O)[C@H]1O [Example 125],528
3,CN(C)CCCOc1cccc(-c2ccc(CNc3nc4c(N)ncnc4n3[C@@H]3O[C@H](CO)[C@@H](O)[C@H]3O)cc2)c1 [Example 117],378
4,Nc1ncnc2c1nc(NCc1ccc(-c3ccsc3)cc1)n2[C@@H]1O[C@H](CO)[C@@H](O)[C@H]1O [Example 132],649
5,"CCN(CC)CCCOc1cc(CNc2nc3c(N)ncnc3n2[C@@H]2O[C@H](CO)[C@@H](O)[C@H]2O)ccc1-c1ccccc1 [Example 115, 8-[2-(3-Diethylaminopropoxy)biphenyl-4-ylmethylamino]-adenosine]",378
6,Nc1ncnc2c1nc(NCc1ccc(-c3ccccc3)c(OCCCN3CCCC3)c1)n2[C@@H]1O[C@H](CO)[C@@H](O)[C@H]1O [Example 120],444

# System: not listed separately
# Assay: Effects of CNT inhibitor on plasma uric acid level (purine load test in rats)
# Format: in vivo
# Conditions: Male SD-IGS rats, oxonic acid 100 mg/kg s.c., purine mix 50 mg/kg and test compound 50 mg/kg orally, blood after 1 hour; control group = 100%
# Experimental: Male SD-IGS rats (5 weeks old) which were fasted overnight, were subcutaneously treated with oxonic acid (Aldrich; 100 mg/kg), and after 1 hour, purine mix (Adenosine: Inosine: Guanosine=1:1:1 (Adenosine (Sigma), Inosine (WAKO), Guanosine (ICN); 50 mg/kg) and test compounds (50 mg/kg) were orally administrated simultaneously. A control group was treated with oxonic acid and the purine mix, and a group administrated only oxonic acid represented endogenous plasma uric acid value. After 1 hour, blood was collected from the abdominal aorta under ether anesthesia, and the plasma was collected with Venoject II vacuum blood collecting tube (Terumo, VP-FH052). According to the method described in Journal of Chromatography B, Vol. 744 (2000), pp. 129-138, plasma uric acid level was measured by using HPLC method mentioned below. The difference between plasmauric acid value in each study group and endogenous plasma uric acid value was calculated on the basis of 100% in the control group.
# Theophylline (10 μg) as an internal standard substance was added to 0.1 mL of plasma collected with the above method, and then the samples were deproteinized with 1 mL of methanol. After the samples were centrifuged, the methanol layers were evaporated to dryness under a stream of nitrogen. […] Plasma uric acid concentration was determined by HPLC method according to the condition described below. […]
row,Structure (SMILES),Percentage of increment of plasma uric acid level (%)
1,Nc1ncnc2c1nc(NCc1ccc(-c3ccccc3)c(OCCCCO)c1)n2[C@@H]1O[C@H](CO)[C@@H](O)[C@H]1O [Example 82],44.1 (p < 0.05) %
